The target of test [1] is T1, Human immunodeficiency virus type 1 integrase (Human immunodeficiency virus 1, UniProt Q7ZJM1). Kind of test: Inhibition of HIV-1 integrase enzyme by 3'-processing method.
Test [2] concerns the target T1, Human immunodeficiency virus type 1 integrase. Kind of test: Inhibition of HIV-1 integrase enzyme.
For test [3] the target is unchanged. Kind of test: Inhibition of HIV-1 integrase enzyme by 3'-processing method (experiment 2).
The target is the same in test [4]. The experiment in a line: Inhibition of HIV-1 integrase enzyme by integration method (experiment 1).
The target is the same in test [5]. Kind of test: Inhibition of HIV-1 integrase enzyme by 3'-processing method (experiment 1).
For test [6] the target is unchanged. The experiment in a line: Inhibition of HIV-1 integrase enzyme by integration method (experiment 2).
For test [7] the target is unchanged. The experiment in a line: Inhibition of HIV-1 integrase enzyme by integration method.

What is called pIC50 is −log10 of the IC50, conventionally taken in molar units. Low values mean a large IC50, high ones a small IC50.

Each structure is given as a SMILES string. pIC50: −log10 of the molar value.

T1 sequence (Q7ZJM1 whole entry): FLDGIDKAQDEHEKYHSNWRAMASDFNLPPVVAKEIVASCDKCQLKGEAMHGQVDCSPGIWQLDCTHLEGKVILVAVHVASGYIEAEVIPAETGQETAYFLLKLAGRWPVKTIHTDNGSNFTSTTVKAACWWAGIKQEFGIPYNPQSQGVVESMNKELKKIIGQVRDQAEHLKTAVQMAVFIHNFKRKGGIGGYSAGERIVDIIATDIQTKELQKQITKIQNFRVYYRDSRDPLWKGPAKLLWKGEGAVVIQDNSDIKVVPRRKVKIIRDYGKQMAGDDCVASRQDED

On to `Nc1ccccc1C(=O)NNC(=O)c1ccccc1N`, for which the negative logarithm of the IC50 (pIC50) in test [1] and in test [2] was under 4.00 throughout.
In the case of `O=C(NNC(=O)c1ccccc1)c1ccccc1`, the pIC50 in test [1] and in test [2] was under 4.00 throughout.
For `NNC(=O)c1ccccc1N`, the pIC50 in test [1] and in test [2] was under 4.00 throughout.
Regarding `NNC(=O)c1ccccc1O`, the pIC50 is 3.94 in test [3], 4.48 in test [4], 4.34 in test [5] and 4.37 in test [6].
Regarding `O=C(NNC(=O)c1ccccn1)c1ccccn1`, the pIC50 in test [1] and in test [2] was under 4.00 in each case.
Regarding `Nc1ccccc1C(=O)NNC(=O)c1ccccc1O`, the pIC50 in test [1] and in test [2] was under 4.00 throughout.
With `NNC(=O)c1ccccc1S`, the pIC50 is 4.10 in test [3], 4.24 in test [4], 4.15 in test [5] and 4.30 in test [6].
Consider `NN(CC(O)COc1ccccc1)C(=O)c1ccccc1O` (stereo not given), for which the pIC50 in test [1] and in test [2] was under 3.70 in each case.
With `O=C(NNCC(O)COc1ccccc1)c1ccccc1O` (stereo not given), the pIC50 in test [1] and in test [7] was under 3.70 in each case.
With `O=C(NNC(=O)c1ccccc1O)c1ccccc1`, the pIC50 in test [1] and in test [2] was under 4.00 in each case.
Consider `O=C(N/N=C/c1ccccc1O)c1ccccc1O`, for which the pIC50 in test [1] and in test [2] was under 4.00 in each case.
In the case of `O=C(NNC(=O)c1ccccc1O)c1ccccc1O`, the pIC50 in test [1] was 5.68; in test [2], 6.14.
For `O=C(NNC(=O)c1cc2ccccc2cc1O)c1ccccc1O` the same measures were 5.64 and 5.96.
For the compound `CC(=O)NNC(=O)c1ccccc1O`, the pIC50 in test [1] and in test [2] was under 4.00 each time.
Regarding `O=C(NNC(=O)c1ccccc1S)c1ccccc1O`, the figures for the pIC50 in test [1] and in test [2] were 5.04 and 5.24, respectively.
Consider `O=C(NCCCNC(=O)c1ccccc1O)c1ccccc1O`, for which the pIC50 in test [1] and in test [2] was under 3.70 throughout.
On to `O=C(NNCc1ccccc1O)c1ccccc1O`, for which the pIC50 is 5.17 in test [1] and 5.28 in test [2].
As for `NC(=O)c1ccccc1O` [SALICYLAMIDE], the pIC50 in test [1] and in test [2] was under 4.00 each time.

Values taken from ChEMBL document CHEMBL1130409, “Hydrazide-containing inhibitors of HIV-1 integrase” (J Med Chem, 1997).
